This note sets out measurements from patent US8546366B2, “Method for inhibition of tumor cell growth using (22R)-5α-lanosta-8,24-dien-3β,15α,21-triol” (Mackay Memorial Hospital, priority 2011, dated 2013).

The structures appear in SMILES notation.

One data set relates to caspase 3 and caspase 8. Kind of data set: Caspase dependence of growth inhibition and caspase expression. It counts as cell-based. The source says: Thus, the compound may induce apoptosis in a caspase-independent pathway.
Data set [1] has as its system human normal monocytes isolated from peripheral blood mononuclelar cells. Kind of data set: Viability of human normal monocytes. The data set is classed as cell-based. The note with it: for effect on normal monocytes: normal human peripheral blood monocytes. As to the method:
FIG. 4 is a morphological assessment of human normal peripheral blood monocytes treated by the compound. Liu's stain method was used for morphological observation. (A) Control group and (B) Experimental group (treated with 5 μg/ml of the compound for 1 day).

Data set [2] relates to U937, BxPC-3, CE-81T/VGH, HA22T/VGH and HeLa tumor cell lines. Kind of data set: MTT assay, summary over the inhibited tumor cell lines. It counts as cell-based, human. As to conditions: range over U937, BxPC-3, CE-81T/VGH.
In data set [3] the test system is human leukemic cell line U937. Kind of data set: Cell cycle analysis by flow cytometry. It counts as cell-based. The note with it: 2.5 μg/ml, 48 hours. As to the method: Flow cytometer was used to analyze the effect of the compound on cell cycle of human leukemic cells.
The compound in concentration of 2.5 μg/ml was used to treat human leukemic cell line U937, and cells without addition of compound were served as the control group. The treated cells after 48 hours of treatment were fixed at 4° C. with 70% ethanol for 1 hour and stained for 30 minutes with propidium iodide solution (0.5 mg/ml of propidium iodide; 0.1 mg/ml of RNAse) contained in a CycleTEST PLUS DNA reagent kit (Becton Dickinson, Lincoln Park, N.J.). DNA content measurement on the collected 10^4 cells was performed on the FACS Calibur flow cytometer (Becton Dickinson), and the cell cycle changes were analyzed using a ModFit software (Becton Dickinson).
Background: In flow cytometry, cells or beads pass a laser one at a time.

Another data set has as its system tumor cells. Kind of data set: DNA gel electrophoresis, inter-nucleosomal DNA cleavage. It counts as cell-based. As to conditions: 5 μg/ml; 24 hours; 1.5% agarose gel. As to the method:
Lane 1, molecular marker; Lane 2, control group; Lane 3, experimental group (treated with 5 μg/ml of the compound for 24 hours).
In addition to the morphological changes described above, cells may show some biochemical changes during cell apoptosis, including chromatin condensation, formation of apoptotic body due to cell fragmentation, and inter-nucleosomal cleavage of DNA that leading to formation of DNA ladder in DNA electrophoresis. To confirm the relationship of inhibition activity between the compound and the stage of cell apoptosis, the experiment adopted DNA electrophoresis to examine inter-nucleosomal cleavage of DNA into DNA ladder at late stage of cell apoptosis.
Total DNAs were extracted and analyzed by 1.5% agarose gel electrophoresis in TBE buffer (5 mM TBE buffer containing 1 μM EDTA, pH 8.0). The gel was stained with ethidium bromide and visualized under UV.

Data set [4] deals with human esophageal cancer cell line CE-81T/VGH. Kind of data set: MTT cell survival assay, esophageal cancer cells. The data set is classed as cell-based. As to conditions: 5 μg/ml, 72 hours. As to the method:
The purified compound was added into the culture media with human esophageal cancer cell line CE-81T/VGH to test for tumor cell survival. This survival assay was carried out with the abovementioned MTT assay, wherein the CE-81T/VGH esophageal cancer cell line was obtained from Taipei Veteran General Hospital, the cell line originated from the epithelium of human esophageal cancer cells.
(§1) The human esophageal cancer cell line CE-81T/VGH was cultivated in DMEM media containing 100 IU/ml penicillin (Invitrogen, Carlsbad, Calif.), 100 μg/ml streptomycin (Invitrogen, Carlsbad, Calif.), 2 mM glutamin (Invitrogen, Carlsbad, Calif.), and 10% fetal calf serum (Atlanta Biologicals, Norcross, Ga.). The proliferated cells were treated with the compound in the concentration of 0 (the control group) and 5 μg/ml (the experimental group), respectively. The cells were incubated at 37° C. in a 5% CO2 incubator for 24-72 hours. 500 μg/ml of MTT was added into each well in the dark and incubated for 4 hours, followed by the addition of 500 μl of isopropanol to stop the reaction. The plates were read on an ELISA reader at wavelength of 570 nm to determine the survival rates.
(In general: Tetrazolium assays rely on reduction of a dye to a coloured formazan, in cell work by metabolically active cells.)

The test system of data set [5] is human leukemic cell U937. Nature of the data set: Mitochondria transmembrane potential, DiOC6(3) flow cytometry. It counts as cell-based. As to conditions: 5 μg/ml, 16 hours. The method, then: Human leukemic cell U937 was treated with the compound (5 μg/ml) for 16 hours. The same cells treated with anti-tumor agent camptothecin (4 μM) for 16 hours were used as positive control group, while untreated cells were used as control group. The cells were then washed with PBS solution, followed by addition of 40 nM 3,3′-dihexyloxacarbocyanine(DiOC6(3); Molecular Probes, Eugene, Oreg.) into culture medium at 37° C. in the dark and incubated for 15 minutes. The results were analyzed immediately using flow cytometry, wherein the excitation wavelength was set at 488 nm and emission wavelength set at 530 nm to detect fluorescence density and as representative of mitochondria transmembrane potential change.

Data set [6] relates to human leukemic cell U937. Nature of the data set: MTT cell survival assay, leukemic cells U937. It counts as cell-based. The method, then:
Examples of the present invention adopted anti-tumor drugs screening model of National Cancer Institute (NCI) to examine inhibitory effect of the compound on cancer cells. The compound was added into culture medium containing leukemic cells U937 (a human monoblastoid leukemic cell line) to test for tumor cell survival. Cell survival rate is determined by well known MTT assay, and U937, a human myeloid leukemic cell line obtained from American Type Culture Collection (ATCC), is belonged to one of human acute leukemic cell lines and is classified as monoblasts during hematopoietic differentiation.
MTT assay is a commonly used method for analysis of percent of viable cells, wherein MTT (3-[4,5-dimethylthiazol-2-yl]2,5-diphenyltetrazolium bromide) is a yellow color dye that can be absorbed by living cells and be converted by mitochondria succinate tetrazolium reductase to water insoluble purple-blue formazan. Therefore, the amount of formazan formation can be used as an assessment tool to determine the survival rate of cells.
The human leukemia cell line U937 was cultivated in RPMI 1640 medium containing fetal calf serum for 24 hours and maintained in the exponential growth condition. The proliferating cells were treated with the compound in the concentration of 0 (the control group), 1.25, 2.5, 5 or 10 μg/ml at 37° C. under 5% CO2 for 24-72 hours, respectively. Then MTT was added in a concentration of 500 μg/ml into each wells in the dark and incubated for 4 hours, followed by the addition of 500 μl of isopropanol to stop the reaction. The plates were read on an ELISA reader at wavelength of 570 nm to determine the cell survival rates. The results were reported as the average±(plus/minus) SEM (Standard Error in the Mean). For statistical analysis, the t-test was used to compare the difference between each experiment result. p<0.05 was considered statistically significant.

In data set [7] the test system is human hepatoma cell line HA22T/VGH. Kind of data set: MTT cell survival assay, hepatoma cells. It counts as cell-based. As to conditions: 5 μg/ml, 72 hours. As to the method:
The test adopted the cell survival analysis (i.e., the MTT assay as described above). The purified compound was added into the culture media with human hepatoma cell line HA22T/VGH to test for tumor cell survival. This survival assay was carried out with the abovementioned MTT assay, wherein the hepatoma cell line HA22T/VGH was obtained from Taipei Veteran General Hospital, the cell line originated from the human hepatoma.
as §1, with “hepatoma” for “esophageal cancer”, “HA22T/VGH” for “CE-81T/VGH”

Data set [8] relates to human ovarian cancer cell line SKOV-3. Kind of data set: MTT cell survival assay, ovarian cancer cells. As to conditions: 5 μg/ml, 72 hours. The data set is classed as cell-based. The method, then: The test adopted the cell survival analysis (i.e. the MTT assay as described above). The purified compound was added into the culture media of human ovarian cancer cell line SKOV-3 to test for tumor cell survival. This survival assay was carried out with the abovementioned MTT assay, wherein the ovarian cancer cell line SKOV-3 was purchased from American Type Culture Collection (ATCC), the cell line originated from the epithelium of human ovarian cancer.
as §1, with “ovarian” for “esophageal”, “SKOV-3” for “CE-81T/VGH”

In data set [9] the test system is human pancreatic cancer cell line BxPC-3. Kind of data set: MTT cell survival assay, pancreatic cancer cells. It counts as cell-based. The method, then:
The test adopted the cell survival analysis (i.e., the MTT assay as described above). The purified compound was added into the culture media with human pancreatic cancer cell line BxPC-3 to test for tumor cell survival. This survival assay was carried out with the abovementioned MTT assay, wherein the pancreatic cancer cell line BxPc-3 was purchased from American Type Culture Collection (ATCC), the cell line originated from the epithelium of human pancreatic adenocarcinomas.
The human pancreatic cancer cell line BxPc-3 was cultivated in DMEM media containing 100 IU/ml penicillin (Invitrogen, Carlsbad, Calif.), 100 μg/ml streptomycin (Invitrogen, Carlsbad, Calif.), 2 mM glutamin (Invitrogen, Carlsbad, Calif.), and 10% fetal calf serum (Atlanta Biologicals, Norcross, Ga.). The proliferated cells were treated with the compound in the concentration of 0 (the control group), 5 and 10 μg/ml (the experimental group), respectively. The cells were incubated at 37° C. in a 5% CO2 incubator for 24-72 hours. 500 μg/ml of MTT was added into each well in the dark and incubated for 4 hours, followed by the addition of 500 μl of isopropanol to stop the reaction. The plates were read on an ELISA reader at wavelength of 570 nm to determine the cell survival rates. The results were reported as the average±(plus/minus) SEM (Standard Error in the Mean). […]

The test system of data set [10] is human cervical adenocarcinoma cell line HeLa. Nature of the data set: MTT cell survival assay, cervical adenocarcinoma cells. It counts as cell-based. As to conditions: 5 μg/ml, 72 hours. As to the method:
The test adopted the cell survival analysis (i.e., the MTT assay as described above). The purified compound was added into the culture media with human cervical adenocarcinoma cell line HeLa to test for tumor cell survival. This survival assay was carried out with the abovementioned MTT assay, wherein the cervical adenocarcinoma cell line HeLa was purchased from American Type Culture Collection (ATCC), the cell line originated from the epithelium of human cervical adenocarcinoma.
as §1, with “cervical adenocarcinoma” for “esophageal cancer”, “HeLa” for “CE-81T/VGH”

For `CC[C@@]1(O)C(=O)OCc2c1cc1n(c2=O)Cc2cc3ccccc3nc2-1` [camptothecin, reference compound], the “block of induced growth inhibition by caspase 3 and pan-caspase inhibitors” value in the data set on caspase 3 and caspase 8 is recorded as “could block”.

In data set [1] (human normal monocytes), `CC(C)=CCC[C@@H](CO)[C@H]1C[C@H](O)[C@@]2(C)C3=C(CC[C@]12C)[C@@]1(C)CC[C@H](O)C(C)(C)[C@@H]1CC3` [the compound, (22R)-5α-lanosta-8,24-dien-3β,15α,21-triol] had a viability inhibition of less than 10%. For the same molecule, the “effect on normal monocytes” value is listed as “without toxicity to normal monocytes” in data set [1] and “no effect” in data set [1] (listed as The compound). In addition, in data set [2], the “inhibition rate on tumor cell lines” value is on record as 48.5˜99.8%. The cell cycle distribution entry in data set [3] is “hypoploidy, G2/M phase arrest, and polyploidy”. Besides, in the data set with tumor cells, the “genomic DNA fragmentation (DNA ladder)” value is listed as “induced the genomic DNA into oligonucleosomal fragmentations”. Moreover, the inhibitory rate in data set [4] is reported as 61.4%; in the data set with human leukemic cell U937 [6] (U937, 1.25, 2.5, 5 and 10 μg/ml, all groups, third day) it was “more than 60%”; with human leukemic cell U937 [6] (U937, 5 and 10 μg/ml groups, third day), “more than 95%”; in data set [7], 90.3%; in data set [10] it was 56.8%. For the same molecule, the “mitochondria transmembrane potential change” value in the data set on human leukemic cell U937 [5] is listed as “did not be exhibited significantly reduction of transmembrane potential”. The highest inhibitory rate with human leukemic cell U937 [6] (U937, highest rate, 5 and 10 μg/ml groups, third day) is given as 99.8%; in data set [9] (5 and 10 μg/ml groups, third day, highest rate) it was 48.5%. In the data set with human leukemic cell U937 [6] (U937 cells, MTT), the IC50 result is reported as “about 2 μg/ml”. Moreover, the growth inhibition entry in [8] is on record as “could not inhibit the growth”. In [9] (5 μg/ml (summary)), this molecule yielded an inhibition rate of 49.1%.
